For series [1], the system named is larvae of the mustard beetle (Phaedon cochleariae). Description: Phaedon larvae test (cabbage leaves dipped). In kind it is in vivo. The note with it: for Kill rate in % after 7 d: leaf dip, Brassica oleracea. The protocol: [table] To produce a suitable preparation of active compound, 1 part by weight of active compound is mixed with the stated amount of solvent and the stated amount of emulsifier, and the concentrate is diluted with water to the desired concentration. Cabbage leaves (Brassica oleracea) are treated by being dipped into the active compound preparation of the desired concentration and populated with larvae of the mustard beetle (Phaedon cochleariae) while the leaves are still moist. After the desired period of time, the kill in % is determined. 100% means that all beetle larvae have been killed; 0% means that none of the beetle larvae have been killed.

The nature of series [2]: logP determination by HPLC on reversed-phase column (C 18), EEC Directive 79/831 Annex V.A8. The note with it: reversed-phase C 18, 43° C., acid range (0.1% aqueous phosphoric acid, acetonitrile), marked a). Type of series: physicochemical. The method, then: a) The logP values given in table 1 were determined in accordance with EEC Directive 79/831 Annex V.A8 by HPLC (High Performance Liquid Chromatography) on a reversed-phase column (C 18). Temperature: 43° C. (a) Mobile phases for the determination in the acid range: 0.1% aqueous phosphoric acid, acetonitrile; linear gradient from 10% acetonitrile to 90% acetonitrile—corresponding measurement results are marked a) in table 1. Calibration was carried out using unbranched alkan-2-ones (having 3 to 16 carbon atoms) with known logP values (determination of the logP values by the retention times using linear interpolation between two successive alkanones).

Series [3] relates to larvae of the mustard beetle (Phaedon cochleariae). Description: Phaedon test (spray treatment). In kind it is in vivo. The note with it: for Kill rate in % after 7 d: 500 g/ha, spray, Brassica pekinensis disks. The method, then: (§1) [table] To produce a suitable preparation of active compound, 1 part by weight of active compound is mixed with the stated amounts of solvents and emulsifier, and the concentrate is diluted with emulsifier-containing water to the desired concentration. Disks of Chinese cabbage (Brassica pekinensis) are sprayed with an active compound preparation of the desired concentration and, after drying, populated with larvae of the mustard beetle (Phaedon cochleariae). After the desired period of time, the effect in % is determined. 100% means that all beetle larvae have been killed; 0% means that none of the beetle larvae have been killed.

Series [4] deals with caterpillars of the army worm (Spodoptera frugiperda). Kind of series: Spodoptera frugiperda test (corn leaf disks sprayed). The note with it: for Kill rate in % after 7 d: 500 g/ha, spray, Zea mays leaf disks. In kind it is in vivo. The protocol:
as §1, with “corn leaves (Zea mays)” for “Chinese cabbage (Brassica pekinensis)”, “caterpillars” for “larvae”, “army worm (Spodoptera frugiperda).” for “mustard beetle (Phaedon cochleariae).”, “caterpillars” for “beetle larvae”

In series [5] the test system is green peach aphid (Myzus persicae). Kind of series: Myzus test (spray treatment, Brassica pekinensis). Type of series: in vivo. The note with it: for Kill rate in % after 5 d: 500 g/ha, spray, Brassica pekinensis disks. The method, then: as §1, with “pekinensis) which are infested by all stages of the green peach aphid (Myzus persicae)” for “pekinensis)”, “concentration.” for “concentration and, after drying, populated with larvae of the mustard beetle (Phaedon cochleariae).”, “aphids” for “beetle larvae”

The values below come from patent US20090099192A1, “Substituted 1H-pyrrole-2,5-diones” (Bayer CropScience AG, priority 2004, published 2009).

With `Cc1cc(C)c(C2=C(O)C(=O)N(Cc3ccccc3)C2=O)c(C)c1` [Example 5], in series [1], the “activity in the Phaedon larvae test” value is “good activity”. Moreover, the “Kill rate in % after 7 d” value in series [1] (1000 ppm) was 100%.

In the case of `CC(C)N1C(=O)C(O)=C(c2cccc(C(F)(F)F)c2)C1=O` [Example 6], the “activity in the Phaedon larvae test” value in series [1] is on record as “good activity”. Besides, in series [1] (1000 ppm), the “Kill rate in % after 7 d” value is reported as 100%.

Consider `CC(C)(c1ccccc1)N1C(=O)C(O)=C(c2cccc(C(F)(F)F)c2)C1=O` [Example 7], for which the “activity in the Phaedon larvae test” value in series [1] is recorded as “good activity”. Moreover, the “Kill rate in % after 7 d” value in series [1] (1000 ppm) is 100%.

For `O=C1C(O)=C(c2ccc(C(F)(F)F)cc2)C(=O)N1CC(F)(F)F` [Example 8], in series [1], the “activity in the Phaedon larvae test” value is given as “good activity”. The “Kill rate in % after 7 d” value in series [1] (500 ppm) is 100%.

For `O=C1C(O)=C(c2ccc(OC(F)(F)F)cc2)C(=O)N1c1ccc(OC(F)(F)F)cc1` [Example 9], the “activity in the Phaedon larvae test” value in series [1] is on record as “good activity”. Further, the “Kill rate in % after 7 d” value in series [1] (500 ppm) was found to be 90%. Besides, the logP entry in series [2] was “logP = 4.12^a)”.

On to `CCOC(=O)CCN1C(=O)C(O)=C(c2cc(Cl)cc(Cl)c2)C1=O` [Example 179], for which, in series [2], the logP entry is given as “logP = 2.80^a)”.

Take `CCOC(=O)CCN1C(=O)C(O)=C(c2ccc(C)cc2)C1=O` [Example 180]: the logP entry in series [2] is on record as “logP = 2.74^a)”.

Regarding `CCOc1cccc(F)c1CN1C(=O)C(O)=C(c2c(C)cc(C)cc2C)C1=O` [Example 181], the logP result in series [2] was “logP = 3.68^a)”.

As to `CCOc1cccc(F)c1CN1C(=O)C(O)=C(c2ccc(OC(F)(F)F)cc2)C1=O` [Example 182], in series [2], the logP entry was “logP = 4.13^a)”.

`CCOc1cccc(F)c1CN1C(=O)C(O)=C(c2ccc(Cl)cc2)C1=O` [Example 183]: the logP entry in series [2] was “logP = 3.85^a)”.

For `CCOc1cccc(F)c1CN1C(=O)C(O)=C(c2ccc(C(F)(F)F)cc2)C1=O` [Example 184], in series [2], the logP entry is reported as “logP = 3.81^a)”.

Take `O=C1C(O)=C(c2ccc(Cl)cc2Br)C(=O)N1C1CCCC(C(F)(F)F)C1` (centres unmarked) [Example 186]: in series [3], the “activity in the Phaedon test (spray treatment)” value (from here on “activity in the Phaedon test”) is recorded as “good activity” and the “Kill rate in % after 7 d” value is recorded as 100%. Also, in series [4], the “activity in the Spodoptera frugiperda test (spray)” value (“activity … (spray)” below) is “good activity” and the “Kill rate in % after 7 d” value stood at 100%. Besides, the logP entry in series [2] is “logP = 2.53^a)”.

For `O=C1C(O)=C(c2ccc(Br)cc2Cl)C(=O)N1C1CCCC(C(F)(F)F)C1` (centres unmarked) [Example 187], in series [3], the “activity in the Phaedon test” value was “good activity” and the “Kill rate in % after 7 d” value came to 100%. Also, in series [2], the logP entry was “logP = 2.47^a)”.

Consider `Cc1ccccc1C1=C(O)C(=O)N(C2CCCC(C(F)(F)F)C2)C1=O` (centres unmarked) [Example 188], for which, in series [3], the “activity in the Phaedon test” value was “good activity” and the “Kill rate in % after 7 d” value is on record as 100%. Besides, in series [4], the “activity … (spray)” value is on record as “good activity” and the “Kill rate in % after 7 d” value is given as 100%. For the same molecule, in series [2], the logP result is “logP = 3.11^a)”.

Take `COc1ccccc1C1=C(O)C(=O)N(C2CCCC(C(F)(F)F)C2)C1=O` (centres unmarked) [Example 189]: in series [3], the “activity in the Phaedon test” value is on record as “good activity” and the “Kill rate in % after 7 d” value was 83%. For the same molecule, the logP result in series [2] is “logP = 3.32^a)”.

For the molecule `O=C1C(O)=C(c2ccccc2OC(F)(F)F)C(=O)N1C1CCCC(C(F)(F)F)C1` (centres unmarked) [Example 190], in series [3], the “activity in the Phaedon test” value is given as “good activity” and the “Kill rate in % after 7 d” value came to 100%. Besides, in series [4], the “activity … (spray)” value is on record as “good activity” and the “Kill rate in % after 7 d” value is reported as 83%. For the same molecule, in series [2], the logP entry was “logP = 3.77^a)”.

Regarding `O=C1C(O)=C(c2ccccc2[N+](=O)[O-])C(=O)N1C1CCCC(C(F)(F)F)C1` (centres unmarked) [Example 194], in series [3], the “activity in the Phaedon test” value is on record as “good activity” and the “Kill rate in % after 7 d” value is 100%. In addition, in series [2], the logP entry was “logP = 3.01^a)”.

For `CC1CCCC(N2C(=O)C(O)=C(c3ccccc3Br)C2=O)C1` (centres unmarked) [Example 197], in series [3], the “activity in the Phaedon test” value is reported as “good activity” and the “Kill rate in % after 7 d” value was determined as 100%. In addition, in series [4], the “activity … (spray)” value was “good activity” and the “Kill rate in % after 7 d” value amounted to 100%. For the same molecule, the logP entry in series [2] is on record as “logP = 3.61^a)”.

With `O=C1C(O)=C(c2cc(F)ccc2Br)C(=O)N1C1CCCC(C(F)(F)F)C1` (centres unmarked) [Example 198], in series [3], the “activity in the Phaedon test” value was “good activity” and the “Kill rate in % after 7 d” value is reported as 100%. For the same molecule, the logP result in series [2] is recorded as “logP = 3.46^a)”.

In the case of `CC1CC(N2C(=O)C(O)=C(c3ccccc3Cl)C2=O)CC(C)(C)C1` (centres unmarked) [Example 199], in series [3], the “activity in the Phaedon test” value is listed as “good activity” and the “Kill rate in % after 7 d” value worked out at 100%. Also, the logP entry in series [2] was “logP = 4.18^a)”.

For the molecule `CC1(C)CC(N2C(=O)C(O)=C(c3ccccc3Cl)C2=O)CC(C)(C)C1` [Example 200], in series [3], the “activity in the Phaedon test” value was “good activity” and the “Kill rate in % after 7 d” value is given as 100%.

For the molecule `O=C1C(OCc2ccc(Cl)cc2)=C(c2ccccc2Cl)C(=O)N1C1CCCC(C(F)(F)F)C1` (centres unmarked) [Example 203], in series [3], the “activity in the Phaedon test” value is recorded as “good activity” and the “Kill rate in % after 7 d” value is on record as 100%. In addition, in series [4], the “activity … (spray)” value is recorded as “good activity” and the “Kill rate in % after 7 d” value turned out to be 100%.

As for `O=C1C(OCc2ccccc2)=C(c2ccccc2Cl)C(=O)N1C1CCCC(C(F)(F)F)C1` (centres unmarked) [Example 204], in series [3], the “activity in the Phaedon test” value is reported as “good activity” and the “Kill rate in % after 7 d” value was found to be 100%. Moreover, in series [4], the “activity … (spray)” value is “good activity” and the “Kill rate in % after 7 d” value is on record as 100%. In series [2], the logP entry is “logP = 5.01^a)”.

`CC(C)(C)C(=O)OC1=C(c2ccccc2Cl)C(=O)N(C2CCCCC2C(F)(F)F)C1=O` (centres unmarked) [Example 206]: in series [5], the “activity in the Myzus test (spray, Brassica pekinensis)” value is “good activity” and the “Kill rate in % after 5 d” value is recorded as 90%. The logP result in series [2] is “logP = 5.22^a)”.

With `Cc1ccc(S(=O)(=O)OC2=C(c3ccccc3Cl)C(=O)N(C3CCCC(C(F)(F)F)C3)C2=O)cc1` (centres unmarked) [Example 208], in series [3], the “activity in the Phaedon test” value is recorded as “good activity” and the “Kill rate in % after 7 d” value is on record as 100%. Also, in series [2], the logP entry is “logP = 4.89^a)”.

Consider `O=C1C(O)=C(c2c(F)cccc2F)C(=O)N1C1CCC(C(F)(F)F)CC1` (centres unmarked) [Example 209], for which the “activity in the Phaedon larvae test” value in series [1] is reported as “good activity”. Also, the “Kill rate in % after 7 d” value in series [1] (500 ppm) is 100%.

For the molecule `O=C1C(O)=C(c2ccccc2Cl)C(=O)N1C1CCC(C(F)(F)F)CC1` (centres unmarked) [Example 210], the “activity in the Phaedon larvae test” value in series [1] is “good activity”. Also, the “Kill rate in % after 7 d” value in series [1] (500 ppm) was found to be 100%. Moreover, the logP result in series [2] is listed as “logP = 3.59^a)”.

As to `O=C1C(O)=C(c2ccc(C(F)(F)F)cc2)C(=O)N1C1CCC(C(F)(F)F)CC1` (centres unmarked) [Example 211], the “activity in the Phaedon larvae test” value in series [1] is “good activity”. Besides, the “Kill rate in % after 7 d” value in series [1] (500 ppm) is 90%. Also, in series [2], the logP result is “logP = 4.28^a)”.

With `O=C1C(O)=C(c2ccccc2F)C(=O)N1C1CCCC(C(F)(F)F)C1` (centres unmarked) [Example 213], the “activity in the Phaedon larvae test” value in series [1] was “good activity”. Moreover, the “Kill rate in % after 7 d” value in series [1] (500 ppm) amounted to 100%. Also, the logP result in series [2] was “logP = 3.42^a)”.

`Cc1ccccc1C1=C(O)C(=O)N(C2CC(C(F)(F)F)CC(C(F)(F)F)C2)C1=O` (centres unmarked) [Example 216]: the “activity in the Phaedon larvae test” value in series [1] is listed as “good activity”. Besides, the “Kill rate in % after 7 d” value in series [1] (500 ppm) is recorded as 100%. The logP entry in series [2] is “logP = 3.85^a)”.

`O=C1C(O)=C(c2ccccc2Br)C(=O)N1C1CCCC(C(F)(F)F)C1` (centres unmarked) [Example 218]: in series [3], the “activity in the Phaedon test” value was “good activity” and the “Kill rate in % after 7 d” value is recorded as 100%. Besides, in series [5], the “activity in the Myzus test (spray, Brassica pekinensis)” value is on record as “good activity” and the “Kill rate in % after 5 d” value came to 80%. In series [4], the “activity … (spray)” value was “good activity” and the “Kill rate in % after 7 d” value was determined as 100%.
